What all share (assay): biochemical
Parameters in all cases: KINOMEscan competition binding panel (Eurofins DiscoverX), single concentration, percent inhibition
Holding throughout (details): read-out: 15 at 1 µM % inhibition

For one experiment, the target named is GAK (Homo sapiens, UniProt O14976). Here is the method: (§1) KinomeScan® Assay on 7 and 15 was performed as previously described by EuroFins DiscoverX [24]. GSK114 (7) and 15 were submitted for a KINOMEscan® assay to explore the selectivity profile across >400 human kinases at a compound concentration of 1 µM. […] GSK114 (7) is a narrow-spectrum TNNi3K inhibitor but has some potent off-targets including GAK which has been previously reported for this chemotype. […] If utilized together this set of compounds could be useful to investigate TNNi3K biology.

In the next experiment the target is SBK1 (Homo sapiens, UniProt Q52WX2). Here is the method:
as §1

For experiment [1], the target named is T1, ABL1(M351T)-phosphorylated (Homo sapiens, UniProt P00519, M351T).
T1 construct: phosphorylated
The method, then: as §1

The target of a further experiment is T2, MEK4 (Homo sapiens, UniProt P45985).
T2 construct: gene MAP2K4
Here is the method: as §1

Another experiment has as its target CAMK2A (Homo sapiens, UniProt Q9UQM7). Here is the method:
as §1

The next experiment addresses TNNI3K (Homo sapiens, UniProt Q59H18). The method, then:
as §1

Another experiment addresses T3, ABL1-nonphosphorylated (Homo sapiens, UniProt P00519).
T3 construct: nonphosphorylated
Here is the method: as §1

Another experiment deals with PIK3CD (Homo sapiens, UniProt O00329). The method, then: as §1
A further experiment deals with MAK (Homo sapiens, UniProt P20794). The method, then:
as §1

In another experiment the target is MTOR (Homo sapiens, UniProt P42345). Here is the method: as §1
The target of the next experiment is PIP5K1C (Homo sapiens, UniProt O60331). Here is the method:
as §1

Experiment [2] has as its target T4, ABL1(Y253F)-phosphorylated (Homo sapiens, UniProt P00519, Y253F).
T4 construct: phosphorylated
The method, then:
as §1

Another experiment has as its target T5, ERK2 (Homo sapiens, UniProt P28482).
T5 construct: gene MAPK1
The method, then:
as §1

The target in the next experiment is GRK2 (Homo sapiens, UniProt P25098). The method, then:
as §1

The target in the next experiment is T6, MLK2 (Homo sapiens, UniProt Q02779).
T6 construct: gene MAP3K10
Here is the method:
as §1

For another experiment, the target named is CAMK1D (Homo sapiens, UniProt Q8IU85). The method, then: as §1
The target of the next experiment is ERBB3 (Homo sapiens, UniProt P21860). Here is the method: as §1
For the next experiment, the target named is ACVR1 (Homo sapiens, UniProt Q04771). Here is the method:
as §1

Another experiment has as its target DYRK1A (Homo sapiens, UniProt Q13627). Here is the method: as §1
The next experiment concerns the target SIK2 (Homo sapiens, UniProt Q9H0K1). The method, then: as §1
A further experiment has as its target EPHA8 (Homo sapiens, UniProt P29322). Here is the method:
as §1

The target in a further experiment is RAF1 (Homo sapiens, UniProt P04049). Here is the method: as §1
Experiment [3] concerns the target T7, ABL1(F317I)-nonphosphorylated (Homo sapiens, UniProt P00519, F317I).
T7 construct: nonphosphorylated
The method, then:
as §1

The target of a further experiment is SGK2 (Homo sapiens, UniProt Q9HBY8). Here is the method:
as §1

TNNI3K, sequence (Q59H18 whole entry): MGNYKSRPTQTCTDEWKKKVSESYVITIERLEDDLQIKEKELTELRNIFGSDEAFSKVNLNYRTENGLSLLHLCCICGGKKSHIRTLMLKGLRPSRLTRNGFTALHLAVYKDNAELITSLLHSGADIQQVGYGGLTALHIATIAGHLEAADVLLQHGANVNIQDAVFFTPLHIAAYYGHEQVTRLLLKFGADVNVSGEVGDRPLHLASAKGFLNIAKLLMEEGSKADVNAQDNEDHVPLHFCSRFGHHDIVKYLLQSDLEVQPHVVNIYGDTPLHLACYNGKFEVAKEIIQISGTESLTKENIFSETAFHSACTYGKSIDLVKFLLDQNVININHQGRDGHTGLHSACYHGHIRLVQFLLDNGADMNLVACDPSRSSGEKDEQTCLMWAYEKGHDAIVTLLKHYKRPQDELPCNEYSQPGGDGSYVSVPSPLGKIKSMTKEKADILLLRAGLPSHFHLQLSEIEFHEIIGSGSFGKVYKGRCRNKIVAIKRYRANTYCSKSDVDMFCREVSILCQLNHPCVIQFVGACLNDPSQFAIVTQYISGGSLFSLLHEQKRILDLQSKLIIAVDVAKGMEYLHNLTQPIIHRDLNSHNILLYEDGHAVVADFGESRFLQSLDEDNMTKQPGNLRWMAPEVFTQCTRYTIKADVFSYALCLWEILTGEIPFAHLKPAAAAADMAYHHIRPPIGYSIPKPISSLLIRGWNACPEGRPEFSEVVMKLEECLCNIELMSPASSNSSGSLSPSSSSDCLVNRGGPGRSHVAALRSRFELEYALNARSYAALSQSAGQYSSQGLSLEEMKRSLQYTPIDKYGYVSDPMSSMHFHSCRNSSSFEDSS
ACVR1, sequence (Q04771 whole entry): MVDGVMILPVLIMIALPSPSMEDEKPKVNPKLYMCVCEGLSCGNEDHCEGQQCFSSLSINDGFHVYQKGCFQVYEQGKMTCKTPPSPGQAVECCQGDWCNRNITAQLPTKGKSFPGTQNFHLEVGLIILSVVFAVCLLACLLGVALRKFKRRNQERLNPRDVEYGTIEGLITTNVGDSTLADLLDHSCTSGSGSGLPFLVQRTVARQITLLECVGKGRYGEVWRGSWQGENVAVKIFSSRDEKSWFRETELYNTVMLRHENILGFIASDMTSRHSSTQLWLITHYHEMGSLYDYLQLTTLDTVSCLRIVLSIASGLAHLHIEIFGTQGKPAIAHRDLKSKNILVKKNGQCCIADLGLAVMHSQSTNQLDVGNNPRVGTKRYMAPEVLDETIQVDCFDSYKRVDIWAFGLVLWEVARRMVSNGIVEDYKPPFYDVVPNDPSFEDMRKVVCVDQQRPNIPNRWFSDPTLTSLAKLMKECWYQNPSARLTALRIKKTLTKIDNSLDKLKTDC
MAK, sequence (P20794 whole entry): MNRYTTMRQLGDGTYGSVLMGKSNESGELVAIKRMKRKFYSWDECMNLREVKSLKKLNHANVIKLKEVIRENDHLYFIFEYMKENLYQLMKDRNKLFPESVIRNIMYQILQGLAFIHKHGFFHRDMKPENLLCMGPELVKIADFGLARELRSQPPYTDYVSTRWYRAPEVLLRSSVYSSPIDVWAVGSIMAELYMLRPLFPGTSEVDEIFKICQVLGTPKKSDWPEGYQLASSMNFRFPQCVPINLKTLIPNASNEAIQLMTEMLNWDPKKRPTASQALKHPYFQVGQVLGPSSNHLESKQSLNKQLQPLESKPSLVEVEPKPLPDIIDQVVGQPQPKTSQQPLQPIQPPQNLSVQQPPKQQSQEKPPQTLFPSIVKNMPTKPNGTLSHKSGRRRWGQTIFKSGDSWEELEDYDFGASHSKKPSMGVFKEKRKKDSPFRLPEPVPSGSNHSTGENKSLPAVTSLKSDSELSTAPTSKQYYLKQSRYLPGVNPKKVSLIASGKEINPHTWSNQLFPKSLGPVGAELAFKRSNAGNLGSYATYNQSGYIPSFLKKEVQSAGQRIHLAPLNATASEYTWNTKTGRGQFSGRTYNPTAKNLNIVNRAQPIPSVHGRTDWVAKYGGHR
T2 sequence (P45985 whole entry): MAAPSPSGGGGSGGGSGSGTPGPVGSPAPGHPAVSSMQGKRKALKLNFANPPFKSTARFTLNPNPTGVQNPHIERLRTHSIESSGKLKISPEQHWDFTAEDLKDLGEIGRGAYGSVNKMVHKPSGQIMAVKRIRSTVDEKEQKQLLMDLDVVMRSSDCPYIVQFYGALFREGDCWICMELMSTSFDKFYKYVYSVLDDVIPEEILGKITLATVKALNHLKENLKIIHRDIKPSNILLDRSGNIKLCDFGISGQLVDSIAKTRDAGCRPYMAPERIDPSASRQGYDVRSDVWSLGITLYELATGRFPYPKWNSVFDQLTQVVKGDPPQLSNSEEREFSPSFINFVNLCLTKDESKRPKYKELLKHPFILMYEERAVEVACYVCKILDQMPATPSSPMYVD
CAMK1D, sequence (Q8IU85 whole entry): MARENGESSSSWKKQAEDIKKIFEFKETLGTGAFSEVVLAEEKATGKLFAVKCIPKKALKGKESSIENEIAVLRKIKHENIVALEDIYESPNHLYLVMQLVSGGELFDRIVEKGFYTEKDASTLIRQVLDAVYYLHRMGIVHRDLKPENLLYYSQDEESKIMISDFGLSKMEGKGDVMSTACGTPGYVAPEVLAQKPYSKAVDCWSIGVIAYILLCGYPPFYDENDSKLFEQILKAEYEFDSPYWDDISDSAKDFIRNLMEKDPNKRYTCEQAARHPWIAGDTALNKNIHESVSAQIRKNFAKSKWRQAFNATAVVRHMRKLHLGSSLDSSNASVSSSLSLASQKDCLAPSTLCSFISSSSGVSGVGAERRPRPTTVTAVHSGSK
CAMK2A, sequence (Q9UQM7 whole entry): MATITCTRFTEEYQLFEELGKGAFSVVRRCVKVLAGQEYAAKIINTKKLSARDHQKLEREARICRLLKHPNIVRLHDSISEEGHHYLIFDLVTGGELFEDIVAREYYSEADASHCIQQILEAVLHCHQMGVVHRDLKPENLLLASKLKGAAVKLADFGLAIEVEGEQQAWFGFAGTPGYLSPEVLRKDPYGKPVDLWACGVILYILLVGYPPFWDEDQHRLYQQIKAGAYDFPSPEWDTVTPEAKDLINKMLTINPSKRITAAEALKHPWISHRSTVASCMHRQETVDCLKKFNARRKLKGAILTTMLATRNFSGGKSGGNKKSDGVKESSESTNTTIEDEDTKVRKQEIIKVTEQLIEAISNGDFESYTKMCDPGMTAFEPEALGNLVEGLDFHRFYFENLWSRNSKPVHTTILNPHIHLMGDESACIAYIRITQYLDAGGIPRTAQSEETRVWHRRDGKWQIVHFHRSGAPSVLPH
SIK2, sequence (Q9H0K1 whole entry): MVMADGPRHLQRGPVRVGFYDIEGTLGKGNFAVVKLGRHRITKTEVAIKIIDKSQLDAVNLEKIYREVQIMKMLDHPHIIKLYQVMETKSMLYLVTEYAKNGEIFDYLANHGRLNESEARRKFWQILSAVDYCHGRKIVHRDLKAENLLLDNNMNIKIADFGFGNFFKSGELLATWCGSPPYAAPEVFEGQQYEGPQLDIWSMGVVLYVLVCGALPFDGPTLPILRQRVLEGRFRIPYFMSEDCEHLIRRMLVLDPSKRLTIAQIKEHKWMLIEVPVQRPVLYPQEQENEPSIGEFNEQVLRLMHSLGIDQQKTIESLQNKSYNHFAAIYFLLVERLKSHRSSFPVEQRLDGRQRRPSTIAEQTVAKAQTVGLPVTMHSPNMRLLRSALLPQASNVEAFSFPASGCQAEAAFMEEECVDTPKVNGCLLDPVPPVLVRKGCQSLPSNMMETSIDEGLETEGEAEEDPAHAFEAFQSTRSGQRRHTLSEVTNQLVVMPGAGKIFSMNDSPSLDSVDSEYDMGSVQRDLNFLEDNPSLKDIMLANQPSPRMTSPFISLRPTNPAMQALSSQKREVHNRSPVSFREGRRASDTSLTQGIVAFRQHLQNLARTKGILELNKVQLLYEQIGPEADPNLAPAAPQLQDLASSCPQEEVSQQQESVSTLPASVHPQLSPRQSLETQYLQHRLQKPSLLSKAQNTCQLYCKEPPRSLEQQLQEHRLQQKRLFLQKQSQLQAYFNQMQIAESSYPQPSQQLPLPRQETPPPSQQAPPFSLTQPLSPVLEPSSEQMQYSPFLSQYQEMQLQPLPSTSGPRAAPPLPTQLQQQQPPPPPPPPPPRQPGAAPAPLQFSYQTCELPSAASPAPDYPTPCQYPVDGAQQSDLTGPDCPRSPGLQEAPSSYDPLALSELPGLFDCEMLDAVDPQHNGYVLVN
SGK2, sequence (Q9HBY8 whole entry): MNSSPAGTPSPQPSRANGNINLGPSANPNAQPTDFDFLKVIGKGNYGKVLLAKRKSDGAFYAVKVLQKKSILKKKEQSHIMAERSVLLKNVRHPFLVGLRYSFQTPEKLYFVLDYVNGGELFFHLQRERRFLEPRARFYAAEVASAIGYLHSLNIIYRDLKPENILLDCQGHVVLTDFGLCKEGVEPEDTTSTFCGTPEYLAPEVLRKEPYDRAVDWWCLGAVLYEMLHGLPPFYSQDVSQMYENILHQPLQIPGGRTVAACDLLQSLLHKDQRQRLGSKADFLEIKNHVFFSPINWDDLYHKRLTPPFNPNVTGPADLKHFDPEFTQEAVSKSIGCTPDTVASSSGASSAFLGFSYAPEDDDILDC
SBK1, sequence (Q52WX2 whole entry): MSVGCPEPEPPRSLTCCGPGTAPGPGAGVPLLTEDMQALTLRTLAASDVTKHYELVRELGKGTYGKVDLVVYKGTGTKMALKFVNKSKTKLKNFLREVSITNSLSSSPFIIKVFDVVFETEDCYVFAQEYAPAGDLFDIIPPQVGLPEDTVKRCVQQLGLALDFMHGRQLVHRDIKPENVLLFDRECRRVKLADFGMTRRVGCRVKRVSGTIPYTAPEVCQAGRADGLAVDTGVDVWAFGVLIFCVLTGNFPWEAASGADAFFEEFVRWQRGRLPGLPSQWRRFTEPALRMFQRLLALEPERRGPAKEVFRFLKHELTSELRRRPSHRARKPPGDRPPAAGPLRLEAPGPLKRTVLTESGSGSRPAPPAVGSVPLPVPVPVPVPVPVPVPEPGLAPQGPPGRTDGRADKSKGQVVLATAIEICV

On to `CNS(=O)(=O)c1ccc(N(C)C)c(Nc2nc(C)nc3cc(OC)c(OC)cc23)c1` [compound 15, 3-((6,7-dimethoxy-2-methylquinazolin-4-yl)amino)-4-(dimethylamino)-N-methylbenzenesulfonamide], for which the inhibition at 1 µM was 78% on GAK; 44% at SBK1; 0% in experiment [1]; 25% on MEK4; 4% on CAMK2A; 7% at TNNI3K. In addition, the inhibition at 1 µM at ABL1-nonphosphorylated amounted to 13%; at PIK3CD, 37%; on MAK it was 8%; on MTOR, 0%; at PIP5K1C it was 18%; in [2] it was 18%. In addition, the inhibition at 1 µM worked out at 0% at ERK2; 10% at GRK2; 0% on MLK2; 0% at CAMK1D; 16% on ERBB3; 0% at ACVR1. In addition, the inhibition at 1 µM on DYRK1A is 15%; at SIK2 it was 4%; at EPHA8 it was 3%; on RAF1, 0%; in [3], 17%; at SGK2, 0%.

Values taken from article PMC7180948, “New Insights into 4-Anilinoquinazolines as Inhibitors of Cardiac Troponin I–Interacting Kinase (TNNi3K)” (Molecules, 2020).
